# Starred links: 1 amine or outer side, 2 acyl side, 3 side chain; linkers in the order of their positions; H or OH if unused. Positions of bridges follow the written chain, without caps; N, C: chain ends. No end group written: not given here. *: point of attachment. TBMB = c1c(C[*:1])cc(C[*:3])cc1C[*:2]; Myristyl = CCCCCCCCCCCCCC*
# What was measured:
# [1] = tested on: metastatic initiating cells (MICs); test: Flow cytometry for alanine walk (MIC inhibition); assay type: cell-based; conditions: alanine walk peptide inhibitors, FACS MIC signature
# Procedure: FACS (Fluorescence-activated cell sorting) was performed on single-cell suspensions treated with a suite of alanine walk peptide inhibitors. Cells were stained an array of antibodies to target the metastatic initiating cell (MIC) signature including CD44, CD24, SNAIL, ABCB5, CSV and Hoechst dye to monitor cell viability. The FACS gating strategy used is adopted and modified from our signature for metastatic initiating cells (MICs), which sorted cells based on the MIC, therapeutic resistant phenotype, shown to be associated with metastatic and aggressive cancer cells. A flow cytometry gating strategy was always included in the analysis to exclude dead cells ([…]). Flow cytometry acquisition was performed on single cell suspensions using BLSR II. Analysis was performed using FlowJo software.
# [2] = tested on: cancer cell proliferation; test: Cancer cell proliferation (Table 12 summary); assay type: cell-based
# Procedure: (§1) MDA-MB-231 cells were seeded at 4×10^3 cells/well into a 96-well flat bottom tissue culture plate in a final volume of 100 ul and left to adhere for 24 hours at 37° C. and 5% CO2. Cells were then treated with inhibitors for 72 hours at a final concentration of 200, 100, 50, 25, 12.5 or 6.25 μM. Following inhibition, media was removed and replaced with 100 μL/well of WST-1 cell proliferation reagent (Sigma-Aldrich, Cat# 11644807001) at 1:10 final dilution. Absorbance was recorded at 450 nm at 1, 2, 3, and 4 hour incubation periods using a microplate spectrophotometer (with 30 sec mix time). Data represent a single independent experiment performed in triplicate, results are graphed as mean +/− standard error (SE).
# (§2) 4T1, CT26 or MDA-MB-231 cancer cell lines were treated with DL-2 or DL-2-D bicyclic inhibitors for 72 hours. Following inhibition, media was removed and replaced with WST-1 cell proliferation reagent. Absorbance was recorded at 450 nm after 1 hour. Data represent a single independent experiment performed in triplicate; results are graphed as mean +/− standard error (SE).
# [3] = tested on: PDL1-PTM1, CSV and ALDH1A1 in 4T1 cells; test: Imaging of PDL1-PTM1, CSV and ALDH1A1 after cyclic PDL1 peptide; assay type: cell-based; conditions: 4T1 breast cancer cell line (Table 11 comment)
# Procedure: Breast cancer cell line, 4T1, was treated with vehicle control or cyclic PDL1 peptide (cyclic PDL1) at a concentration of 50 μM. Cells were permeabilised and were probed with primary antibodies against PDL1-PTM1, CSV and ALDH1A1. Cover slips were mounted on glass microscope slides with ProLong nucblue glass Antifade reagent (Life Technologies). PDL1-PTM1, CSV and ALDH1A1 digital images were analysed using ImageJ software (ImageJ, NIH, Bethesda, MD, USA). Graphs represent the mean fluorescent intensity in the nucleus or the cytoplasm compartments with significant differences calculated as per Mann-Whitney analysis or the ratio of nuclear to cytoplasmic staining for PDL1-PTM1 which was calculated using the formula F(n−b)/(c−b) wherein n=nuclear staining, b=background, c=cytoplasmic. A ratio of 1 or high indicates nuclear bias, under 1 indicates cytoplasmic bias.
# CSC = CSC inhibition (Table 10 summary); assay type: cell-based; conditions: linear peptide derivatives; change stated relative to prototype PDL1-L1
# MDA-MB-231 cells = test: WST-1 cell proliferation assay, MDA-MB-231; assay type: cell-based, human; conditions: MDA-MB-231, WST-1, 72 hours
# Procedure: as §1
# (§3) (A) CT26, 4T1 or MDA-MB-231 Cells were treated with inhibitors for 72 hours. Following inhibition, media was removed and replaced with WST-1 cell proliferation reagent. Absorbance was recorded at 450 nm after 1 hour. Data represent a single independent experiment performed in triplicate. Results are graphed as mean +/− standard error (SE). B) MDA-MB-231 or CT26 cancer cells were treated with vehicle control, DL-2-Batch 1 (original stock), DL-2-Batch 2 (current stock), DL-2-TBAB or linear PDL1. Cells were permeabilised and were probed with the DUOLINK ligation assay. Cover slips were mounted on glass microscope slides with ProLong nucblue glass Antifade reagent (Life Technologies). PDL1Ac and IMPα1 DUOLINK Digital images were analysed using ImageJ software (ImageJ, NIH, Bethesda, MD, USA) and graphs represent the mean DOT Fluorescent Intensity in the nucleus or the cytoplasm compartments with significant differences calculated as per one-way ANOVA comparison. (C) MDA-MB-231 or CT26 cancer cells were treated with vehicle control, DL-2-Batch 1 (Original stock), DL-2-Batch 2 (current stock), DL-2-TBAB or linear PDL1. Cells were permeabilised and were probed with the DUOLINK ligation assay. Cover slips were mounted on glass microscope slides with ProLong nucblue glass Antifade reagent (Life Technologies). PDL1-unmodified and IMPα1 DUOLINK digital images were analysed using ImageJ software (ImageJ, NIH, Bethesda, MD, USA) and graphs represent the mean DOT fluorescent intensity in the nucleus or the cytoplasm compartments with significant differences calculated as per one-way ANOVA comparison.
# as §2
# Cells weretreated with inhibitors for 48 hours. Following inhibition, media was removed and replaced with WST-1 cell proliferation reagent. Absorbance was recorded at 450 nm after 1 hour.
# MDA-MB-231-Br cells = test: WST-1 cell proliferation assay, MDA-MB-231-Br; assay type: cell-based, human; conditions: WST-1
# CT26 cells = test: WST-1 cell proliferation assay, CT26; assay type: cell-based, mouse; conditions: CT26, WST-1, 72 hours
# Procedure: as §3, §2
# 4T1 cells = test: WST-1 cell proliferation assay, 4T1; assay type: cell-based; conditions: 4T1, WST-1, 72 hours
# Procedure: as §3, §2
# [4] = Rat plasma stability assay; assay type: in vitro ADME; conditions: 37° C., up to 24 hours
# Procedure: The stability assay was performed as per CRO's protocol (Creative Peptides). In brief, peptide stability assays were carried out using a rat plasma model with the following steps: • 3.6 mL of human plasma and rat plasma were thawed at room temperature and centrifuged at 3000 rpm for 15 min. Remove the precipitate. • Prepare 20 mL termination solution ([…]) and precool at 4° C. • Prepare the following solution:
# • Incubate the tube at 37° C. Take out 200 μL plasma sample at desired time points up to 24 hours respectively (e.g., at 0, 15, 30, 60, 120 mins, etc). Add 400 μL pre-cooled stop solution, centrifuge at 3000 rpm, 4° C. for 15 min, and carefully aspirate the supernatant. • The supernatant samples were filtered with a 0.22 μm filter membrane, and then analysed by LC-MS in order to determine the percentage of the test compound remaining.
# The stability assay was performed using the same protocol as described above in Example 7.
# [5] = tested on: 4T1 TNBC metastatic cancer cells; test: 4T1 model of metastatic breast cancer in mice; assay type: in vivo, mouse
# Procedure: 4T1 Gold standard immunotherapy resistant mouse model mice obtained from the ARC, Perth and mice were inoculated with 4T1 TNBC metastatic cancer cells. DL-2 is supplied lyophilised in glass vials and was reconstituted using sodium chloride injection BP (0.9% saline) to make a stock solution of 10 mg/mL using a needle/syringe, DL-2 was mixed by inversion. Animals were then injected by intraperitoneal injection at 10, 20 or 30 mg/kg daily and rested over the weekend. Mice were monitored over time for body weight and tumour volume.
# 4T1 Gold standard immunotherapy resistant mouse model mice obtained from the ARC, Perth and mice were inoculated with 4T1 TNBC metastatic cancer cells. DL-2 or DL-2-D is supplied lyophilised in glass vials was reconstituted using sodium chloride injection BP (0.9% saline) to make a stock solution of 10 mg/mL using a needle/syringe, DL-2 was mixed by inversion. Animals were then injected by intraperitoneal injection and mice were monitored over time for body weight and tumour volume for DL-2 at 20 mg/kg every second day with resting over the weekend in conjunction with αPD1 or isotype control (10 mg/kg).
# DL-2-D was mixed by inversion. Animals were then injected by intraperitoneal injection and mice were monitored over time for body weight and tumour volume for DL-2-D at a concentration of 20 mg/kg every two days (identical regime to αPD1) in conjunction with αPD1 or isotype control (10 mg/kg).
# CD8+ TIM3+ T cells = test: FACS of CD8+ TIM3+ T cells from 4T1 tumour mouse model; assay type: in vivo; conditions: 4T1 TNBC tumour mouse model
# Description: FIG. 32 provides graphical representations showing a comparison between DL-2 and DL-2-D. (A) As per FIGS. 24, and 25, above. (B) Fixed cells were washed with PBS and resuspended in PBS containing 1% BSA prior to antibody staining. Primary antibodies targeting CD8, TIM3 and PD1 antibodies were used. Appropriate antibody controls were used for all flow cytometry stain and acquisition. All samples were acquired on an LSR Fortessa cytometer (BD Biosciences, Franklin Lakes, NJ), and data were analyzed using FlowJo v10 software
# [6] = DL-2-D (20 mg/kg) and αPD1 (10 mg/kg) combination therapy, day 20
substance,measurement,setting,value
TFIFRLRKGRMMAVKK,% Inhibition (number of metastatic initiating cells),[1],100%
TFIFRLRKGRMMDAKK,% Inhibition (number of metastatic initiating cells),[1],81.9%
TFIFRLAKGRMMDVKK,% Inhibition (number of metastatic initiating cells),[1],43.98%
"ACLTFIFRLRCKGRMCMDVGKK (Myristyl-ACLTFIFRLRCKGRMCMDVGKK; linker 2-11-16 via TBMB) [DL-3, bicyclic peptide, Myristyl- N-terminus, TBMB backbone]",inhibition of cancer cell proliferation,[2]; Table 12 comment,DL-3 displayed no
TFAFRLRKGRMMDVKK,% Inhibition (number of metastatic initiating cells),[1],30.2%
TFIFRLRKGRMMDVAK,% Inhibition (number of metastatic initiating cells),[1],48.7%
TFIFRARKGRMMDVKK,% Inhibition (number of metastatic initiating cells),[1],35.6%
TFIARLRKGRMMDVKK,% Inhibition (number of metastatic initiating cells),[1],4.4%
"LTFIFRLRKGRMMDVKKAGGA (Myristyl-LTFIFRLRKGRMMDVKKAGGA; not fully specified) [PDL1-L1 C2, Myristyl- cyclic peptide derivative, 4 linker amino acids]",inhibition of mesenchymal cancer markers and nuclear PDL1-PTM1,[3],Failed to inhibit
TFIFRLRKGRAMDVKK,% Inhibition (number of metastatic initiating cells),[1],74.35%
TFIFRLRKARMMDVKK,% Inhibition (number of metastatic initiating cells),[1],41.38%
TAIFRLRKGRMMDVKK,% Inhibition (number of metastatic initiating cells),[1],74.35%
kkvdmmcrGkrlrcfiftlca [DL2-D Ret Linear],Potency (CSC inhibition),CSC,No change
acltfifcrlrkGrcmmdvkk [DL2-D-Linear],Potency (CSC inhibition),CSC,No change
"LTFICFRLRKGRMCMDVCGKK (Myristyl-LTFICFRLRKGRMCMDVCGKK; linker 5-14-18 via TBMB) [DL-1, bicyclic peptide, Myristyl- N-terminus, TBMB backbone]",inhibition of proliferation,MDA-MB-231 cells,able to inhibit proliferation
same,inhibition of proliferation,MDA-MB-231-Br cells,able to inhibit proliferation
same,fold less potent than DL-2 at inhibiting cancer cell proliferation,[2],DL-1 was 3-fold less
TFIFRLRKGRMADVKK,% Inhibition (number of metastatic initiating cells),[1],100%
AFIFRLRKGRMMDVKK,% Inhibition (number of metastatic initiating cells),[1],80.13%
acltfifcrirckGrcmmdvkk [DL-2-D],inhibition of proliferation,MDA-MB-231 cells,significantly inhibit the proliferation
same,inhibition of proliferation,CT26 cells,significantly inhibit the proliferation
same,inhibition of proliferation,4T1 cells,significantly inhibit the proliferation
same,stability in rat plasma (percentage of test compound remaining),[4],significantly more stable
same,lung metastasis,[5]; [6],reduces
same,primary tumour burden,[5]; [6],reduces
same,"lung, liver or spleen weights",[5]; DL-2-D alone,does not alter
same,body weight,[5]; DL-2-D and anti-PD1 combination therapy,No change
same,tumour volume,[5]; DL-2-D as a monotherapy agent,significantly inhibits
same,"lung, liver or spleen weights",[5]; DL-2-D in combination with anti-PD1,does not alter
same,body weight,[5]; DL-2-D monotherapy,No change
same,abrogating the TIM3+ immunotherapy-resistant signature in CD8+ T cells,CD8+ TIM3+ T cells,more potent than DL-2
TFIFRLRKGAMMDVKK,% Inhibition (number of metastatic initiating cells),[1],62.69%
TFIFRLRAGRMMDVKK,% Inhibition (number of metastatic initiating cells),[1],0%
TFIFRLRKGRMMDVKA,% Inhibition (number of metastatic initiating cells),[1],58.03%
TFIFALRKGRMMDVKK,% Inhibition (number of metastatic initiating cells),[1],71.67%
"ACLTFIFCRLRKGRCMMDVKK [DL2-Linear, Myristyl- DL2 linear peptide]",Potency (CSC inhibition),CSC,No change
